Reference: BindingDB's records for patent US20230303513 (Bristol-Myers Squibb, 2023)

Experiments:
[1] = target: T1, N-formyl peptide receptor 2 (Homo sapiens, UniProt P25090); assay: cAMP Assay
T1 sequence (P25090 whole entry): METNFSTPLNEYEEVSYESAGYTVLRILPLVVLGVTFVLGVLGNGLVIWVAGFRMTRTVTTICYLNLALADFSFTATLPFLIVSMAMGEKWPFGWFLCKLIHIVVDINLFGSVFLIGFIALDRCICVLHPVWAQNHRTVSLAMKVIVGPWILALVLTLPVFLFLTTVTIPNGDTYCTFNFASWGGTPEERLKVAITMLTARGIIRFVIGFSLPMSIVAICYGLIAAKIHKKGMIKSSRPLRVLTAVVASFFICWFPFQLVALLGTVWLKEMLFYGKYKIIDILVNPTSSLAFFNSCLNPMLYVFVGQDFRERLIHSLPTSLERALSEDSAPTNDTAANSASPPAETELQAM
Protocol: (§1) FPR2 and FPR1 Cyclic Adenosine Monophosphate (cAMP) Assays were used to measure the activity of the compounds in this patent. FPR2 and FPR1 Cyclic Adenosine Monophosphate (cAMP) Assays. A mixture of forskolin (5 μM final for FPR2 or 10 μM final for FPR1) and IBMX (200 μM final) were added to 384-well Proxiplates (Perkin-Elmer) pre-dotted with test compounds in DMSO (1% final) at final concentrations in the range of 0.020 nM to 100 μM. Chinese Hamster Ovary cells (CHO) overexpressing human FPR1 or human FPR2 receptors were cultured in F-12 (Ham's) medium supplemented with 10% qualified FBS, 250 μg/ml zeocin and 300 μg/ml hygromycin (Life Technologies). Reactions were initiated by adding 2,000 human FPR2 cells per well or 4,000 human FPR1 cells per well in Dulbecco's PBS (with calcium and magnesium) (Life Technologies) supplemented with 0.1% BSA (Perkin-Elmer). The reaction mixtures were incubated for 30 min at room temperature. The level of intracellular cAMP was determined using the HTRF HiRange cAMP assay reagent kit (Cisbio) according to manufacturer's instruction. Solutions of cryptate conjugated anti-cAMP and d2 flurorophore-labelled cAMP were made in a supplied lysis buffer separately. Upon completion of the reaction, the cells were lysed with equal volume of the d2-cAMP solution and anti-cAMP solution.

fMet-Leu-Phe receptor = target: T2, fMet-Leu-Phe receptor (Homo sapiens, UniProt P21462); assay: cAMP Assay
T2 sequence (P21462 whole entry): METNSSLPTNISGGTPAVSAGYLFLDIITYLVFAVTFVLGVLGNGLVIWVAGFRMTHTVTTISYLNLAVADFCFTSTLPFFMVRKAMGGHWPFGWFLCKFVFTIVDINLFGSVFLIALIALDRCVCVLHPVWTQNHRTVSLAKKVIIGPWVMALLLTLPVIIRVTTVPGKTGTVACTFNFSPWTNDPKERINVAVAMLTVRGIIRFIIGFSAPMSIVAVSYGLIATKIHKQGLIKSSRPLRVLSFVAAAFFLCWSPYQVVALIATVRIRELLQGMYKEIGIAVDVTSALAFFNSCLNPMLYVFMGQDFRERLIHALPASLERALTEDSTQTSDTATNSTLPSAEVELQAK
Protocol: as §1

EC50 [1] | EC50 (fMet-Leu-Phe receptor) | Compound
6.2 nM | > 10000 nM | COCCn1cccc(N2C[C@@H](c3ccc(Cl)cc3)[C@H](NC(=O)NC3CCc4cc(OC)ccc4C3)C2=O)c1=O (some centres undefined) [US20230303513, Example 55]
41 nM | 3600 nM | COCC(CO)n1cccc(N2C(=O)[C@@H](NC(=O)N[C@H]3CC[C@H](C(F)F)CC3)[C@H](c3c(F)cc(OC)cc3F)[C@@H]2C)c1=O (some centres undefined) [US20230303513, Example 63]
